Test results published in patent US6004972A, “Therapeutic process for the treatment of the pathologies of type II diabetes” (The Board of Supervisiors of Louisiana State University and …, priority 1998, dated 1999).
Where “and” joins values, the source holds several entries; their conditions need not be identical. Identical values can stand only once.

Tests used:
adult female pigs = test: Effects of bromocriptine implants on fat stores and plasma triglyceride, glucose and insulin in pigs; type: in vivo, pig (swine)
Description: (§1) Adult female pigs, six in number, were given bromocryptine implants (10 mg/pig/day) lasting over a period of time while the pigs were subjected to daily periods of daylight and darkness (12:12). […] A control group of six pigs were similarly treated to periods of daylight and darkness except that no bromocryptine was administered to the pigs of the control group. The period of darkness was from 1800 to 0600, and the period of daylight from 0600 to 1800. Daily tests were made of the blood of the pigs at four hour intervals over a 14 day period to determine the plasma cortisol level (μg/dl) and plasma prolactin level […] of both groups. The average for each series of tests made on each group are given as follows:
Notes: Backfat thickness was used as an index in determining fat stores.
Plasma was sampled at 1600, 2000 and 2400 after two weeks of treatment. Each pig of the treatment group and control group was sampled.

Type II diabetes [1] = test: Oral bromocriptine in a diabetic (Example 4); type: in vivo, human; settings: parlodel 2.5 mg/day orally, 2.5 months
Description: A person weighing nearly 300 pounds was known to be a diabetic but had resisted all previous admonitions for treatment. […] Body weight has dropped 22 pounds and plasma glucose levels decreased to 160 mg/dl.

[2] = tested on: noninsulin dependent (Type II) diabetes; test: Timed oral bromocriptine in fifteen persons with noninsulin dependent (Type II) diabetes (Example 5); type: in vivo, human; settings: for Body Fat Loss / Plasma Glucose (% initial) / Skinfold Measurements (% initial): p < 0.05
Description: The participants were carefully instructed not to alter their daily activity or eating habits during the course of treatment.
Skinfold thickness was measured on the left side of the body by a trained anthropometrist in four regions: biceps, triceps, subscapular, and suprailiac, following the recommendations of the International Biological Program. Because of its frequent use, percent body fat was estimated from the common logarithm of the sum of the four skinfolds, using the equations of Durnin and Rahman and of Siri. […] Skinfold measurements were taken initially and at weekly intervals by the same individual. Blood pressure was also determined at these times. Morning fasting plasma glucose in the diabetic group was determined initially and after 4-8 weeks.

[3] = tested on: circadian rhythms of plasma cortisol and prolactin in adult female pigs; test: Circadian plasma cortisol and prolactin levels in pigs given bromocriptine implants; type: in vivo, pig (swine); settings: for Plasma Cortisol Level: implant 10 mg/pig/day
Description: as §1, with “follows: […]” for “follows:”

Type II diabetes [4] = test: Oral bromocriptine in a person treated with diabenase (Example 3); type: in vivo, human
Description: A person was being treated with a hypoglycemic agent (diabenase) which had reduced the blood glucose of the patient from 250 mg/dl to about 180 mg/dl during one year of treatment. […] Removal of the hypoglycemic agent allowed glucose levels to rise and remain near 100 mg/dl (a normal level) in the succeeding two months.

symptoms of diabetes = test: Oral bromocriptine in a diabetic (Example 2); type: in vivo, human; settings: 1.25-2.50 mg/day orally just after awakening
Description: At the beginning of the treatment, blood glucose concentration was shown by routine testing to be near 250 mg/dl. […] Fasting levels below 120 mg/dl are considered normal.

body fat stores = settings: injections at different times of day; cited from earlier work
[5] = subjects on hypoglycemic drugs (8), 4-8 weeks
[6] = subjects receiving insulin (7), 4-8 weeks
[7] = parlodel 1.25-2.5 mg/day orally

With `CC(C)C[C@H]1C(=O)N2CCC[C@H]2[C@]2(O)O[C@](NC(=O)[C@@H]3C=C4c5cccc6[nH]c(Br)c(c56)C[C@H]4N(C)C3)(C(C)C)C(=O)N12` [bromocriptine, 2-bromo-alpha-ergocryptine] the Backfat (adult female pigs; 10 mg/day/pig implant, 28 days after treatment) was 86 % control, the “Triglyceride (plasma)” value (adult female pigs; 10 mg/day/pig implant, two weeks, sampled 1600, 2000 and 2400, control 52 ± 8) was 27 ± 3 mg/dL and the “Glucose (plasma)” value (adult female pigs; 10 mg/day/pig implant, two weeks, sampled 1600, 2000 and 2400, control 99 ± 5) was 86 ± 3 mg/dL. The “reduction in plasma insulin concentration” value (adult female pigs; implant) was “not statistically significant”, the “reduction of body fat stores” value (adult female pigs; implant, 28 day period of treatment) was 14% and the “reduction of plasma glucose levels” value (adult female pigs; implant, early period of darkness (2000-2400)) was 13%. For the same molecule, the “reduction of plasma triglyceride concentration” value (adult female pigs; implant, near sunset) was 48%, the plasma glucose level (Type II diabetes [1]; initial near 350 mg/dl) was 160 mg/dL and the “drop in body weight” value (Type II diabetes [1]; two to three hours after awakening, initial nearly 300 pounds) was 22 pounds. The transient anorexic effects ([2]; 1.25 mg for 2-3 days then 2.5 mg daily, oral) was “did not occur”, the “mild nausea, participants” value ([2]; 1.25 mg for 2-3 days then 2.5 mg daily, oral, transient, first few days) was < 10% and the “reductions in body fat” value ([2]; after 6 weeks without food restriction) was 4.4 % of the body weight. The “blood glucose concentrations and skinfold measurements” value ([2]; all subjects, 4-8 weeks) was “reduced in every diabetic subject”, the “doses of hypoglycemic drugs and insulin” value ([2]; during bromocriptine treatment) was “reduced in three other subjects” and the “oral hypoglycemic medication discontinued” value ([2]; during bromocriptine treatment) was “completely discontinued during bromocriptine treatment in three individuals”. For the same molecule, the “fat loss, average” value ([2]; present study) was 1.4 pounds per week, the “Body Fat, final” value ([2]; subjects on hypoglycemic drugs (8), 4-8 weeks, initial 36.5 ± 2.3, p < 0.05) was 32.9 ± 2.0 % Body Weight and the “Plasma Glucose, final (fasting)” value ([2]; subjects on hypoglycemic drugs (8), 4-8 weeks, initial 231 ± 19, p < 0.05) was 166 ± 19 mg/dL. The “Total Body Weight, final” value ([2]; subjects on hypoglycemic drugs (8), 4-8 weeks, initial 255 ± 21) was 253 ± 20 pounds, the “Loss of Body Weight” value ([2]; subjects on hypoglycemic drugs (8), 4-8 weeks, not statistically significant) was -2.4 ± 2.0 pounds and the “Body Fat Loss” value [2, 5] was -10.0 ± 2.2 pounds. For the same molecule, the “Plasma Glucose (% initial)” value [2, 5] was 72 ± 6 % initial, the “Skinfold Measurements (% initial)” value [2, 5] was 79 % initial and the “Loss of Body Weight” value [2, 6] was -0.4 ± 2.0 pounds. For the same molecule, the “Body Fat, final” value ([2]; subjects receiving insulin (7), 4-8 weeks, initial 33.4 ± 2.2, p < 0.05) was 31.7 ± 1.7 % Body Weight, the “Body Fat Loss” value [2, 6] was -3.1 ± 0.9 pounds and the “Plasma Glucose (% initial)” value [2, 6] was 65 ± 8 % initial. For the same molecule, the “Skinfold Measurements (% initial)” value [2, 6] was 84 % initial, the “mean loss of body fat” value ([2]; subjects taking hypoglycemic drugs, 4-8 weeks) was 10 pounds and the “mean reduction in skinfold measurements” value ([2]; subjects taking hypoglycemic drugs, four regions, 4-8 weeks) was 21%. For the same molecule, the “reduction of body weight” value ([2]; subjects taking hypoglycemic drugs, not statistically significant) was 2.4 pounds per subject, the “decline in total body fat” value ([2]; subjects taking hypoglycemic drugs, within 4 to 8 weeks) was 10.7% and the “reduction in % body fat” value ([2]; subjects taking insulin) was 5.1. The “reduction in body fat” value ([2]; subjects taking insulin) was 3.1 pounds, the reduction in skinfold ([2]; subjects taking insulin) was 16% and the “reduction of body weight” value ([2]; subjects taking insulin) was “not at all reduced”. The “blood glucose levels after termination of bromocriptine” value ([2]; three individuals off oral hypoglycemic medication, at least two months after bromocriptine terminated) was < 120 mg/dL, the “phase relationships of the circadian rhythms of plasma corticosteroid and prolactin concentrations” value ([3]; implant) was “altered the phase relationships” and the “Plasma Cortisol Level” value ([3]; LD 12:12, time 0400, control 5.5) was 3.2 µg/dL. The “Plasma Cortisol Level” value ([3]; LD 12:12, time 0800, control 4.8) was 1.9 µg/dL, the “Plasma Cortisol Level” value ([3]; LD 12:12, time 1200, control 3.4) was 1.5 µg/dL and the “Plasma Cortisol Level” value ([3]; LD 12:12, time 1600, control 1.6) was 3.2 µg/dL. For the same molecule, the “Plasma Cortisol Level” value ([3]; LD 12:12, time 2000, control 1.9) was 2.8 µg/dL, the “Plasma Cortisol Level” value ([3]; LD 12:12, time 2400, control 2.7) was 3.5 µg/dL and the blood glucose level (Type II diabetes [4]; after removal of hypoglycemic agent, succeeding two months) was ~100 mg/dL. The “reduction of body fat” value (Type II diabetes [4]; [7]) was “about 10%”, the “reduction of body weight” value (Type II diabetes [4]; [7]) was “about 10%” and the blood glucose level (Type II diabetes [4]; parlodel 1.25-2.5 mg/day orally, about an hour after awakening, with diabenase, 2 weeks, from about 180 mg/dl) was 80 mg/dL. The “reduction of body weight” value (symptoms of diabetes) was “about 12%”, the “reduction of indices of body fat” value (symptoms of diabetes) was “about 12%” and the blood glucose concentration (symptoms of diabetes; successive levels in following weeks, initial near 250 mg/dl) was 180 mg/dL and 155 mg/dL and 135 mg/dL and 97 mg/dL and 101 mg/dL.

For `CCCNC(=O)NS(=O)(=O)c1ccc(Cl)cc1` [diabenase], the blood glucose level (Type II diabetes [4]; diabenase alone, one year of treatment, from 250 mg/dl) was “about 180 mg/dl”.

B1: Prolactin: a hormone secreted by the pituitary (protein, UniProt P01236 29-227, looked up)
Prolactin: LPICPGGAARCQVTLRDLFDRAVVLSHYIHNLSSEMFSEFDKRYTHGRGFITKAINSCHTSSLATPEDKEQAQQMNQKDFLSLIVSILRSWNEPLYHLVTEVRGMQEAPEAILSKAVEIEEQTKRLLEGMELIVSQVHPETKENEIYPVWSGLPSLQMADEESRLSAYYNLLHCLRRDSHKIDNYLKLLKCRIIHNNNC
In the case of B1, the stimulation of fattening (body fat stores) is given as “stimulate fattening only when injected at certain times of the day”.
